Results from patent US20240208992A1, “MACROCYCLES AS CFTR MODULATORS” (Idorsia Pharmaceuticals Ltd, priority 2021, published 2024).

Target: human F508del-CFTR (Homo sapiens, UniProt P13569, DEL508-508)
Experiment: F508del-CFTR cell surface expression (corrector activity), DiscoveRx ß-galactosidase complementation chemiluminescence assay in recombinant U2OS cell line;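 further: U2OS cells co-expressing ProLink-tagged F508del-CFTR and a membrane-anchored enzyme acceptor, where more surface CFTR restores β-galactosidase activity measured by chemiluminescence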
Details: U2OS cell line, 16h compound incubation; for EC50: EC50, F508del-CFTR cell surface expression, geomean values; for Emax: U2OS, in relation to the Emax of the corrector lumacaftor (=100%), arithmetic mean values

Chain of human F508del-CFTR (P13569 with tags, fused parts or gaps DEL508-508): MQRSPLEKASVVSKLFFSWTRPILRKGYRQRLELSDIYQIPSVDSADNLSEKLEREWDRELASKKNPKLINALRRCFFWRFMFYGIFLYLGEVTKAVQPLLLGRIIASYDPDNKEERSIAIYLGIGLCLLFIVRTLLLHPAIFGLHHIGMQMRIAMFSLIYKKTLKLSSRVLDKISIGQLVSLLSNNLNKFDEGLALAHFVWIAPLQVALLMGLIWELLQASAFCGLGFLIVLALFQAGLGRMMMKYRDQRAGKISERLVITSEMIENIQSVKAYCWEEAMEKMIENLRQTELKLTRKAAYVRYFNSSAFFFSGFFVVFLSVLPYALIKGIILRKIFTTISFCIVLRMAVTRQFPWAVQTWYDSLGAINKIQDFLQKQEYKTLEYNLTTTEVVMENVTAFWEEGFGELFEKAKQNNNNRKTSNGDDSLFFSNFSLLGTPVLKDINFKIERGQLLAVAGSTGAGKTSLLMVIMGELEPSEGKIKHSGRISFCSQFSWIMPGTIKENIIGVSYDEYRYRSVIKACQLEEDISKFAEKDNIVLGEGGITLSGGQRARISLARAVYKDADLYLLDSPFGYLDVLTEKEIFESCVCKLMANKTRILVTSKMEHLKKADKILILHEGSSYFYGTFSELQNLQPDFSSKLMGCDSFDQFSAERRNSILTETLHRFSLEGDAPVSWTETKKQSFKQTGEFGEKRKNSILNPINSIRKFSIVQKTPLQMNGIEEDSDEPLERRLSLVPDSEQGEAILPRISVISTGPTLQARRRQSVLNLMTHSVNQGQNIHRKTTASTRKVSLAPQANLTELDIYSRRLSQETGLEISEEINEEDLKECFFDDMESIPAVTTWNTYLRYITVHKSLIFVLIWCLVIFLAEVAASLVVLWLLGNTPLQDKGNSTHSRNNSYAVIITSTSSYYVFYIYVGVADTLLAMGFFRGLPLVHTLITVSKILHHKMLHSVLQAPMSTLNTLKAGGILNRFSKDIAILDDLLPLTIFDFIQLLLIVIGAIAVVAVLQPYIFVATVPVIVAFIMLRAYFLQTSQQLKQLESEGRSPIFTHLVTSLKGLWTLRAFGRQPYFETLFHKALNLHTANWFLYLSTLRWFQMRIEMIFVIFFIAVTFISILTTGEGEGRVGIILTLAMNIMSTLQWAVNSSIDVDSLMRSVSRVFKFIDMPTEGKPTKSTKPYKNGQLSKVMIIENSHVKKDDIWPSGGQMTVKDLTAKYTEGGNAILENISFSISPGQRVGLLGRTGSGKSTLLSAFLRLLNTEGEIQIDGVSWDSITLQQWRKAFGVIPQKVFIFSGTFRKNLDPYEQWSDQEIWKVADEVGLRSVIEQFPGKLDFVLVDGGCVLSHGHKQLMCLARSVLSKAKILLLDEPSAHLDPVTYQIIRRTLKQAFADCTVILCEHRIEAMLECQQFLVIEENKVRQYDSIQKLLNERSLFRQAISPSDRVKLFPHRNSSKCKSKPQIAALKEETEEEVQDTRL

Structure (SMILES)	EC50	Emax
COc1cc2c(cc1OC)C(=O)N[C@H](C(=O)NCCc1ccc3c(c1)OCO3)CC(=O)N(C)[C@@H](CC1CCCC1)C(=O)N(CCC1CCCCC1)CC(=O)N[C@H](Cc1ccccc1)CO2 (racemic) [Example 10, (3R,9S,13RS)-N-(2-(benzo[d][1,3]dioxol-5-yl)ethyl)-3-benzyl-7-(2-cyclohexylethyl)-9-(cyclopentylmethyl)-17,18-dimethoxy-10-methyl-5,8,11,15-tetraoxo-2,3,4,5,6,7,8,9,10,11,12,13,14,15-tetradecahydrobenzo[p][1]oxa[4,7,10,14]tetraazacycloheptadecine-13-carboxamide]	82 nM	123%
COc1cccc2c1C(=O)N[C@H](C(=O)NCCc1ccc3c(c1)CCCO3)CC(=O)N(C)[C@@H](CC(C)C)C(=O)N(CCC1CCCCC1)CC(=O)N[C@H](Cc1ccccc1)CO2 (racemic) [Example 11, (3R,9S,13RS)-3-benzyl-N-(2-(chroman-6-yl)ethyl)-7-(2-cyclohexylethyl)-9-isobutyl-16-methoxy-10-methyl-5,8,11,15-tetraoxo-2,3,4,5,6,7,8,9,10,11,12,13,14,15-tetradecahydrobenzo[p][1]oxa[4,7,10,14]tetraazacycloheptadecine-13-carboxamide]		132%
Cc1csc(CCNC(=O)[C@@H]2CC(=O)N(C)[C@@H](CC(C)C)C(=O)N3CCCC[C@@H]3C(=O)N[C@H](Cc3ccccc3)COc3ccc4ncn(C)c4c3C(=O)N2)n1 (racemic) [Example 23, (8RS,12S,18aR,21R)-21-benzyl-12-isobutyl-5,11-dimethyl-N-(2-(4-methylthiazol-2-yl)ethyl)-6,10,13,19-tetraoxo-6,7,8,9,10,11,12,13,16,17,18,18a,19,20,21,22-hexadecahydro-5H,15H-imidazo[4′,5′:5,6]benzo[1,2-p]pyrido[2,1-f][1]oxa[4,7,10,14]tetraazacycloheptadecine-8-carboxamide]		115%
Cc1cnc(CCNC(=O)[C@@H]2CC(=O)N(C)[C@@H](CC(C)C)C(=O)N3CCCC[C@@H]3C(=O)N[C@H](Cc3ccccc3)COc3ccc4ncn(C)c4c3C(=O)N2)s1 (racemic) [Example 24, (8RS,12S,18aR,21R)-21-benzyl-12-isobutyl-5,11-dimethyl-N-(2-(5-methylthiazol-2-yl)ethyl)-6,10,13,19-tetraoxo-6,7,8,9,10,11,12,13,16,17,18,18a,19,20,21,22-hexadecahydro-5H,15H-imidazo[4′,5′:5,6]benzo[1,2-p]pyrido[2,1-f][1]oxa[4,7,10,14]tetraazacycloheptadecine-8-carboxamide]	823 nM	131%
COc1ccc(CCNC(=O)[C@@H]2CC(=O)N(C)[C@@H](CC(C)C)C(=O)N3CCCC[C@@H]3C(=O)N[C@H](Cc3ccccc3)COc3ccc4ncn(C)c4c3C(=O)N2)cc1 (racemic) [Example 25, (8RS,12S,18aR,21R)-21-benzyl-12-isobutyl-N-(4-methoxyphenethyl)-5,11-dimethyl-6,10,13,19-tetraoxo-6,7,8,9,10,11,12,13,16,17,18,18a,19,20,21,22-hexadecahydro-5H,15H-imidazo[4′,5′:5,6]benzo[1,2-p]pyrido[2,1-f][1]oxa[4,7,10,14]tetraazacycloheptadecine-8-carboxamide]	547 nM	142%
CC(C)C[C@H]1C(=O)N2CCCC[C@@H]2C(=O)N[C@H](Cc2ccccc2)COc2ccc3ncn(C)c3c2C(=O)N[C@H](C(=O)NCCc2cccc(OC(F)F)c2)CC(=O)N1C (racemic) [Example 26, (8RS,12S,18aR,21R)-21-benzyl-N-(3-(difluoromethoxy)phenethyl)-12-isobutyl-5,11-dimethyl-6,10,13,19-tetraoxo-6,7,8,9,10,11,12,13,16,17,18,18a,19,20,21,22-hexadecahydro-5H,15H-imidazo[4′,5′:5,6]benzo[1,2-p]pyrido[2,1-f][1]oxa[4,7,10,14]tetraazacycloheptadecine-8-carboxamide]	299 nM	111%
CC(C)C[C@H]1C(=O)N2CCCC[C@@H]2C(=O)N[C@H](Cc2ccccc2)COc2ccc3ncn(C)c3c2C(=O)N[C@H](C(=O)NCCc2ccccc2)CC(=O)N1C (racemic) [Example 27, (8RS,12S,18aR,21R)-21-benzyl-12-isobutyl-5,11-dimethyl-6,10,13,19-tetraoxo-N-phenethyl-6,7,8,9,10,11,12,13,16,17,18,18a,19,20,21,22-hexadecahydro-5H,15H-imidazo[4′,5′:5,6]benzo[1,2-p]pyrido[2,1-f][1]oxa[4,7,10,14]tetraazacycloheptadecine-8-carboxamide]	474 nM	114%
CC(C)C[C@H]1C(=O)N2CCCC[C@@H]2C(=O)N[C@H](Cc2ccccc2)COc2ccc3ncn(C)c3c2C(=O)N[C@H](C(=O)NCCc2cccc(-n3nccn3)c2)CC(=O)N1C (racemic) [Example 28, (8RS,12S,18aR,21R)-N-(3-(2H-1,2,3-triazol-2-yl)phenethyl)-21-benzyl-12-isobutyl-5,11-dimethyl-6,10,13,19-tetraoxo-6,7,8,9,10,11,12,13,16,17,18,18a,19,20,21,22-hexadecahydro-5H,15H-imidazo[4′,5′:5,6]benzo[1,2-p]pyrido[2,1-f][1]oxa[4,7,10,14]tetraazacycloheptadecine-8-carboxamide]		106%
COc1cccc(CCNC(=O)[C@@H]2CC(=O)N(C)[C@@H](CC(C)C)C(=O)N(C)CC(=O)N[C@H](Cc3ccccc3)COc3cc4c(cc3C(=O)N2)OCO4)c1OC (racemic) [Example 151, (7R,13S,17RS)-7-benzyl-N-(2,3-dimethoxyphenethyl)-13-isobutyl-11,14-dimethyl-9,12,15,19-tetraoxo-6,7,8,9,10,11,12,13,14,15,16,17,18,19-tetradecahydro-[1,3]dioxolo[4′,5′:4,5]benzo[1,2-p][1]oxa[4,7,10,14]tetraazacycloheptadecine-17-carboxamide]		106%
COc1cc2c(cc1OC)C(=O)N[C@H](C(=O)NCCc1ccc3c(c1)CCO3)CC(=O)N(C)[C@@H](CC(C)C)C(=O)N(C)CC(=O)N[C@H](Cc1ccccc1)CO2 (racemic) [Example 152, (3R,9S,13RS)-3-benzyl-N-(2-(2,3-dihydrobenzofuran-5-yl)ethyl)-9-isobutyl-17,18-dimethoxy-7,10-dimethyl-5,8,11,15-tetraoxo-2,3,4,5,6,7,8,9,10,11,12,13,14,15-tetradecahydrobenzo[p][1]oxa[4,7,10,14]tetraazacycloheptadecine-13-carboxamide]		133%

Second part, the compound after the results:

EC50	Emax	Structure (SMILES)
	184%	COc1cccc2c1C(=O)N[C@H](C(=O)NCCc1ccc3c(c1)OCCCO3)CC(=O)N(C)[C@@H](CC(C)C)C(=O)N(CCC1CCCCC1)CC(=O)N[C@H](Cc1ccccc1)CO2 (racemic) [Example 12, (3R,9S,13RS)-3-benzyl-7-(2-cyclohexylethyl)-N-(2-(3,4-dihydro-2H-benzo[b][1,4]dioxepin-7-yl)ethyl)-9-isobutyl-16-methoxy-10-methyl-5,8,11,15-tetraoxo-2,3,4,5,6,7,8,9,10,11,12,13,14,15-tetradecahydrobenzo[p][1]oxa[4,7,10,14]tetraazacycloheptadecine-13-carboxamide]
268 nM	153%	COc1cccc2c1C(=O)N[C@H](C(=O)NCCc1ccc3c(c1)COC3)CC(=O)N(C)[C@@H](CC(C)C)C(=O)N(CCC1CCCCC1)CC(=O)N[C@H](Cc1ccccc1)CO2 (racemic) [Example 13, (3R,9S,13RS)-3-benzyl-7-(2-cyclohexylethyl)-N-(2-(1,3-dihydroisobenzofuran-5-yl)ethyl)-9-isobutyl-16-methoxy-10-methyl-5,8,11,15-tetraoxo-2,3,4,5,6,7,8,9,10,11,12,13,14,15-tetradecahydrobenzo[p][1]oxa[4,7,10,14]tetraazacycloheptadecine-13-carboxamide]
160 nM	185%	COc1cccc2c1C(=O)N[C@H](C(=O)NCCc1ccc3ccoc3c1)CC(=O)N(C)[C@@H](CC(C)C)C(=O)N(CCC1CCCCC1)CC(=O)N[C@H](Cc1ccccc1)CO2 (racemic) [Example 14, (3R,9S,13RS)-N-(2-(benzofuran-6-yl)ethyl)-3-benzyl-7-(2-cyclohexylethyl)-9-isobutyl-16-methoxy-10-methyl-5,8,11,15-tetraoxo-2,3,4,5,6,7,8,9,10,11,12,13,14,15-tetradecahydrobenzo[p][1]oxa[4,7,10,14]tetraazacycloheptadecine-13-carboxamide]
	240%	COc1cccc2c1C(=O)N[C@H](C(=O)NCCc1ccc3c(c1)OCC3)CC(=O)N(C)[C@@H](CC(C)C)C(=O)N(CCC1CCCCC1)CC(=O)N[C@H](Cc1ccccc1)CO2 (racemic) [Example 15, (3R,9S,13RS)-3-benzyl-7-(2-cyclohexylethyl)-N-(2-(2,3-dihydrobenzofuran-6-yl)ethyl)-9-isobutyl-16-methoxy-10-methyl-5,8,11,15-tetraoxo-2,3,4,5,6,7,8,9,10,11,12,13,14,15-tetradecahydrobenzo[p][1]oxa[4,7,10,14]tetraazacycloheptadecine-13-carboxamide]
	137%	COc1cccc2c1C(=O)N[C@H](C(=O)NCCc1nc3ccccc3o1)CC(=O)N(C)[C@@H](CC(C)C)C(=O)N(CCC1CCCCC1)CC(=O)N[C@H](Cc1ccccc1)CO2 (racemic) [Example 16, (3R,9S,13RS)-N-(2-(benzo[d]oxazol-2-yl)ethyl)-3-benzyl-7-(2-cyclohexylethyl)-9-isobutyl-16-methoxy-10-methyl-5,8,11,15-tetraoxo-2,3,4,5,6,7,8,9,10,11,12,13,14,15-tetradecahydrobenzo[p][1]oxa[4,7,10,14]tetraazacycloheptadecine-13-carboxamide]
